From patent US5273992A, “Method for reducing sickle erythrocyte dehydration and delaying the occurrence of erythrocyte sickling in-situ” (Beth Israel Hospital Assoc. Inc., priority 1992, dated 1993)
Where “and” joins values, the source holds several entries; their conditions need not be identical. Equal values may be shown once. Entries after “also recorded” stand apart in the source; their conditions may differ. Read-outs that look alike come from different tables or passages of the source.

Tests used:
[1] = biological target: T1, Ca^2+-activated K+ channel (Gardos channel) of sickle erythrocytes (Homo sapiens, UniProt O15554); experiment: Ca^2+-activated ^86Rb influx in sickle (SS) erythrocytes; format: cell-based
T1 construct: Blood was collected after obtaining informed consent from patients; endogenous in cells; host or cells: erythrocytes (SS) from patients homozygous for Hb S
Description: Patients homozygous for Hb S disease were selected. Blood was collected after obtaining informed consent from patients followed in the Hematology Division Clinic at Brigham and Women's Hospital and in the Boston Comprehensive Sickle Cell Center at Boston City Hospital. None of the patients had been transfused in the preceding 120 days.
Other experiments were carried out in normal saline (140 mM NaCl, 2 mM KCl, 10 mM tris-HCl, pH 8.0). At the end of the incubation, triplicate samples of each cell suspension were spun at 3,000 g for 10 min. The supernatant was then removed and a smaller volume of medium containing A23187 (60 μM CaCl2, and ^86 Rb was added to achieve a final Hct of 4-5%. Aliquots of cell suspension were taken at specified times (1, 3, and 5 min) and spun through 0.8 ml of medium with 5 mM EGTA and a 0.4 ml cushion of butyl-phthalate. The resultant supernatant and the upper layer of oil were carefully removed, the tube contents frozen at -80° C. and the tube tip containing the cell pellet cut off and counted.

[2] = biological target: T2, Ca^2+-activated K+ channel of SS cells (Homo sapiens, UniProt O15554); experiment: Displacement of ^125I-ChTX binding in sickle erythrocytes; conditions: for ^125I-ChTX displacement, % of total: 90 min
T2 construct: Blood was collected after obtaining informed consent from patients; endogenous in cells; host or cells: erythrocytes (SS) from patients homozygous for Hb S
Description: White cells were removed by passing 0.8 mL of packed red cells through a 5 ml syringe containing a mixture of equal parts of alfa-cellulose and microcrystalline cellulose as originally described by Beutler and West [J. Lab. Clin. Med. 88:328-333 (1976)]. Red cells were washed 3 times in binding medium containing 18 mM NaCl, 2 mM KCl, 10 mM tris-Cl, pH 8.0, 230 mM sucrose and 0.25% bovine serum albumin. A suspension was then made in the same medium at 15% Hct. […] Tubes containing cell suspension were gently rotated for 90 min at room temperature. At the end of the incubation, aliquots of 1 ml were pelleted by microfuge and washed 3 times at 4° C. with a solution containing 200 mM NaCl, 10 mM tris-Cl, pH 8.0. The washed red cell pellet was then lysed in 1 ml of 0.01% Acationox®, and counted in a gamma counter. Aliquots of binding medium were counted prior to addition of cells and at the end of the binding assay.
^125 I-ChTX is a specific ligand of the Ca^2 + activated K+ channel of human red cells. […] To examine the interaction between CLT and the Ca^2 +activated K+ channel of SS cells, the question whether CLT can displace ^125 I-ChTX (50 pM) bound to SS cells was tested.

[3] = system: AE1 (band 3) chloride/bichloride exchanger; experiment: ^35SO4 influx into AA erythrocytes (AE1 function); format: cell-based, human
Description: The protocol used by Schofield et al. [Nature 355:836-838 (1992)] was used to measure ^35 SO2- uptake in AA erythrocytes.
To determine if the inhibition of Ca^2 +-activated ^86 Rb flux was secondary to an inhibitory effect on the membrane Cl-permeability, the effect of the various compounds on the ^35 SO4 influx was assessed. This assay is a measure of function of the major transport system for red cells, the AE1 (band 3) chloride/bichloride exchanger.

[4] = biological target: Gardos channel of sickle erythrocytes (Homo sapiens, UniProt O15554); experiment: Membrane potential (Em) of SS cells with activated Gardos channel; format: cell-based
Sequence of Gardos channel of sickle erythrocytes (O15554 whole entry): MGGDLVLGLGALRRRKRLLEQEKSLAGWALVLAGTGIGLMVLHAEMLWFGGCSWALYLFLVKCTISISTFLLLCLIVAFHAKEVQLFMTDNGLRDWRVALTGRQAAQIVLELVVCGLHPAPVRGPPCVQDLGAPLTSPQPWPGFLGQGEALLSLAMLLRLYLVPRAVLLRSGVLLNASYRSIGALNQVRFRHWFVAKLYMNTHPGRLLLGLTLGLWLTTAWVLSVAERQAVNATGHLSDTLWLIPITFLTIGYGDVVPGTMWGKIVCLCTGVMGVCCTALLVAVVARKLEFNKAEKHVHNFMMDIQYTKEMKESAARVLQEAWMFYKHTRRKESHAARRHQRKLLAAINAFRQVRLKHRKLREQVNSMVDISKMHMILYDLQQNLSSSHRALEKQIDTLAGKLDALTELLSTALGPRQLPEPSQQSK
Description: Measurements of the proton distribution ratio in unbuffered media in the presence of the proton ionophore CCCP allow estimation of the red cell membrane potential (Em). Erythrocytes were washed twice at room temperature with unbuffered medium of the desired composition and added with stirring to 5 ml of the same medium to a final Hct of 5%. All media contained 100 μM ouabain, 10 μM bumetanide, 10 μM DIDS, 10 μM methazolamide and 50 μM CCCP (50 mM stock solution in DMSO. The medium was maintained at 37° C., and pH was recorded for one min prior and 10 min following addition of the red cells. Inhibitors were added to the specified final concentration by appropriate dilution from 10 mM stocks. For internal pH measurements, 20 μl of 10% (v/v) Triton X-100 were added to the cell suspension in unbuffered medium under stirring, and the pH of the resultant lysate measured and assumed to equal pHi. Em was calculated from the equation [formula] [pHi --pHo ], as detailed in Halpern et al, Am. J. Physiol. 257:c986-c996 (1989).
When the Gardos channel is activated, the increased permeability for K+ shifts the membrane potential away from the equilibrium potential for Cl- (ECI) toward the equilibrium potential for K+(EK). This effect is magnified with the Cl-permeability is inhibited by DIDS.

[5] = system: SS cells (sickle erythrocytes); format: cell-based, human; conditions: for Inhibition of dehydration of SS cells (in words): 60 μmol A23187/L cells, 100 μM CaCl2; for Cell K content at end of incubation: SS cells, A23187 + Ca^2+, average of three experiments (control 279±20, Ca^2+ alone 84.9±24)
Description: Cells were incubated for 60 min at 37° C. in a medium containing 140 mM NaCl, 4 mM KCl, 100 μM CaCl2, 1 mM K-phosphate buffer, pH 7.40, 10 mM tris-MOPS, pH 7.40, at 1-2% Hct. A23187 was subsequently added to a final concentration of 60 μmol/l cells under stirring. At the specified time intervals, the cell suspension was diluted with an equal amount of medium containing 5 MM EGTA and 0.1% BSA. The red cells were then washed four times with the same medium at 37° C. This procedure allowed for chelation of extracellular Ca^2 + and removal of A23187. An aliquot of cells washed in this medium was used to measure the distributions of cell volume and hemoglobin concentration with the H2-Technicon blood analyzer, while the remaining cells were washed four times with choline washing solution (144 mM Choline Cl, 1 mM MgCl2, 10 mM tris-MOPS, pH 7.40 at 4° C.) for measurements of internal Na and K contents.
291-300; Ohnishi et al., Biochim Biophys. Acta 1010:199-203 (1989): Horruchi et al., Blood 71:46-51 (1988)]. However, the results are highly dependent on the protocol used for deoxygenation and reoxygenation of SS cells. We reasoned that the inhibitory effect of CLT and other antimycotics on the dehydration mediated by the Ca^2 +-activated K+ channel should be assessed under conditions of maximal activation of this pathway. If the inhibitor is effective in blocking dehydration in these conditions, it should be able to block dehydration due to transient activation of the channel as during sickling. Accordingly, cells were exposed to A23187 in the presence of 100 μM CaCl2 in a medium containing 140 mM NaCl, 4 mM KCI, at pH 7.40, with or without the transport inhibitors.
After removal of ionophore and chelation of Ca, cell volume and hemoglobin concentration were measured on a cell per cell basis with the Technicon H-2 blood analyzer. […] Distribution histograms for red cell volume and hemoglobin concentration are presented in the lower panel. Arbitrarily established gates (hemoglobin concentration<28 and >41 g/dL; cell volume<60 and>120 fL) are used to define hypo- and hyperchromic cells and micro- and macrocytic cells, respectively. The distribution in the control SS cells (incubated with A23187 in the presence of 1 mM EGTA) resembles a teardrop, with reticulocytes and cells with low HC and high MCV in the top side of middle and left quadrant, discocytes in the central quadrant, and dehydrated dense cells in the right side of the middle quadrant. SS cells exposed to A 23187 and Ca^2+ were markedly dehydrated, as shown by the shift of the hemoglobin concentration (HC) histogram to higher values and by the increased HC values (FIG. 4). […] Measurements of cell cation content at the end of the incubation support the view that these effects are due to inhibition of K loss. […]

[6] = biological target: T1, Ca^2+-activated K+ channel (Gardos channel) of sickle erythrocytes; experiment: Ca^2+-activated ^86Rb influx in sickle (SS) erythrocytes; format: cell-based; conditions: medium 20 mM salt (low ionic strength); for IC50: Dixon plot analysis, read-out: Inhibition of ^86Rb influx, IC50
[7] = in vivo; cited from earlier work
[8] = system: Ca^2+ activated K+ channel of human red cells; conditions: normal red cells; 50 nM cold ChTX; cited from earlier work
[9] = Inhibition of ^86Rb influx, IC50
[10] = SS erythrocytes, medium 140 mM salt (normal saline)
[11] = SS erythrocytes, medium 20 mM salt
[12] = SS erythrocytes, medium 140 mM salt (normal saline), Dixon plot analysis, read-out: Inhibition of ^86Rb influx, IC50
[13] = SS erythrocytes, medium 20 mM salt, read-out: ^125I-ChTX displacement, IC50

Clc1ccccc1C(c1ccccc1)(c1ccccc1)n1ccnc1 [Clotrimazole, 1-[(2-chlorophenyl)diplenylmethyl]-1H-imidazole]
Inhibition of Ca^2+-activated ^86Rb influx / K+ transport (in words) [1]: markedly inhibited
Inhibition of ^86Rb influx, % maximum [1]: 87% and 93%
^125I-ChTX displacement (in words) [2]: displaced ^125 I-ChTX in a dose-dependent manner
^125I-ChTX displacement, % of total ([2]; sickle erythrocytes): 74.5%
Influx of the anion SO4 [3]: not affected
Effect on K+ permeability and membrane potential (Em) ([4]; SS cells, A23187 and 50 μM CaCl2): markedly reduced K+ permeability and shifted Em from EK
Inhibitory potency on membrane potential changes ([4]; low ionic strength vs normal saline, listed as CLT): higher in low ionic strength conditions than in normal saline
Inhibition of dehydration of SS cells (in words) ([5]; 10 μM CLT, 50 nM ChTX, listed as CLT): more pronounced than that by 50 nM ChTX; also recorded: substantially prevented dehydration; also recorded: markedly inhibited the dehydration of sickle cells
Cell K content at end of incubation ([5]; 10 μM CLT): 210±30 mmol/Kg Hb

Clc1ccc(COC(Cn2ccnc2)c2ccc(Cl)cc2Cl)cc1 (stereo not shown) [Econazole, 1-[2-[(4-chlorophenyl)methoxyl]-2-(2,14-dichlorophenyl)ethyl]-1H-imidacole]
Inhibition of ^86Rb influx, % maximum [1]: 31% and 47%
IC50 [1, 9]: 270 nM and 575 nM
IC50 [2]: 205 nM
^125I-ChTX displacement, % of total ([2]; sickle erythrocytes): 37%

OC(Cn1cncn1)(Cn1cncn1)c1ccc(F)cc1F [Fluconazole]
Inhibition of Ca^2+-activated ^86Rb influx / K+ transport (in words) ([1]; SS erythrocytes): non-active
Inhibition of Ca^2+-activated ^86Rb influx / K+ transport (in words) ([1]; SS erythrocytes, listed as fluconazole): no inhibition
Inhibition of ^86Rb influx, % maximum [1, 10]: 0%
^125I-ChTX displacement, % of total [2, 11]: 19%
Inhibition of ^86Rb influx, % maximum [6]: 0%

Cc1ncc([N+](=O)[O-])n1CCO [Metronidazole, 2-methyl-5-nitroimidazole-1-ethanol]
Inhibition of Ca^2+-activated ^86Rb influx / K+ transport (in words) ([1]; SS erythrocytes): partially inhibited
Sequence / rank of inhibitory potency on the Gardos pathway ([1]; SS erythrocytes): clotrimazole>miconazole>econazole>metronidazole
Inhibition of ^86Rb influx, % maximum [1, 10]: 36%
IC50 [1, 12]: 440 nM
^125I-ChTX displacement, % of total [2, 11]: 49%
IC50 [2, 13]: 580 nM
Inhibition of ^86Rb influx, % maximum [6]: 28%
IC50 [6]: 850 nM

Clc1ccc(COC(Cn2ccnc2)c2ccc(Cl)cc2Cl)c(Cl)c1 (stereo not shown) [Miconazole]
Inhibition of ^86Rb influx, % maximum [1]: 63% and 49%
IC50 [1, 9]: 110 nM and 100 nM
IC50 [2]: 165 nM
^125I-ChTX displacement, % of total ([2]; sickle erythrocytes): 57%
Marrow hyoplasia, share of the use cases [7]: 40%

Cc1ncc([N+](=O)[O-])n1CC(O)CCl (stereo not shown) [Ornidazole]
Inhibition of ^86Rb influx at 10 μM (in words) ([1]; SS erythrocytes): only marginally
Inhibition of ^86Rb influx, % maximum [1, 10]: 21%
Inhibition of ^86Rb influx, % maximum [6]: 11%

CCS(=O)(=O)CCn1c([N+](=O)[O-])cnc1C [Tinidazole]
Inhibition of ^86Rb influx at 10 μM (in words) ([1]; SS erythrocytes): only marginally
Inhibition of ^86Rb influx, % maximum [1, 10]: 3%
Inhibition of ^86Rb influx, % maximum [6]: 21%

CHARYBDOTOXIN
Inhibition of ^86Rb influx, % maximum [1, 10]: 52%
IC50 [1, 12]: 0.36 nM
^125I-ChTX displacement, % of total [2, 11]: 74.5%
IC50 [2, 13]: 0.033 nM
Inhibition of dehydration of SS cells (in words) ([5]; 10 μM CLT, 50 nM ChTX): partially inhibited dehydration
Cell K content at end of incubation ([5]; 50 nM ChTX): 192.8±39 mmol/Kg Hb
Inhibition of ^86Rb influx, % maximum [6]: 95.5%
IC50 [6]: 0.096 nM
Total binding displaced by excess cold ChTX [8]: 60-70%
